In patent US12005072B2, “HIV drug combination for increasing barrier against resistance” (Merck Sharp & Dohme LLC, priority 2018, dated 2024):

What was measured:
[1] = system: A98G/V106I/H221Y/F227C mutant; test: Susceptibility of SDM derived DOR-resistant mutant to NRTIs, Example 1; format: cell-based, HIV-1; settings: for EC50: Human immunodeficiency virus 1, read-out: Antiviral Potency
Procedure: (§1) Common doravirine-associated mutants containing F227C substitution were derived from SDM. The experimental conditions for susceptibility evaluation are described in Lai, Ming-Tain, et al., In Vitro Characterization of MK-1439, a Novel HIV-1 Nonnucleoside Reverse Transcriptase Inhibitor. Antimicrobial Agents and Chemotherapy 58(3): 1652-1663, 2014. These mutants conferred more than 100-fold of resistance to DOR. The susceptibility of the mutants to EFdA and 3TC was also evaluated under the same conditions. […] In contrast, the mutants are hypersusceptible to EFdA with 2-5 fold increase in susceptibility with all mutants except the quardruple mutant.

F227C mutant = test: as above; format: cell-based, HIV-1; settings: for EC50: Human immunodeficiency virus 1, read-out: Antiviral Potency
Procedure: as §1

V106I/F227C mutant = test: as above; format: cell-based, HIV-1; settings: for EC50: Human immunodeficiency virus 1, read-out: Antiviral Potency
Procedure: as §1

WT virus = test: Susceptibility of virus to NRTIs (antiviral potency), Example 1; format: cell-based, HIV-1; settings: for EC50: Human immunodeficiency virus 1
Procedure: as §1

A98G/F227C mutant = test: Susceptibility of SDM derived DOR-resistant mutant to NRTIs, Example 1; format: cell-based, HIV-1; settings: for EC50: Human immunodeficiency virus 1, read-out: Antiviral Potency (nM)
From the text: (§2) Common doravirine-associated mutants containing F227C substitution were derived from SDM.

V106M/F227C mutant = test: as above; format: cell-based, HIV-1; settings: for EC50: Human immunodeficiency virus 1, read-out: Antiviral Potency
From the text: as §2

V106I/F227C/H221Y mutant = test: as above; format: cell-based, HIV-1; settings: for EC50: Human immunodeficiency virus 1, read-out: Antiviral Potency
From the text: as §2

[2] = system: other prevalent NNRTI-associated mutants; test: Inhibitory quotients against other NNRTI-associated mutants; format: cell-based, HIV-1; settings: with the exception of Y188L
Procedure: (§3) Inhibitory quotients (IQs) were calculated by determining the ratio of the clinical trough concentration over the antiviral EC50 of various viruses. IQs have been employed to predict the potential efficacy of anti-viral agents.

HIV-1 [3] = settings: escalating concentrations of DOR; cited from earlier work
K103N/Y181C mutant virus [4] = settings: 100% normal human serum (NHS), read-out: EC50 suppressing replication; cited from earlier work
wild type (WT) virus = settings: 100% normal human serum (NHS), read-out: EC50 suppressing replication; cited from earlier work
[5] = system: clinical-NNRTI-associated mutant viruses (a total of 96 viruses); settings: 96 clinical NNRTI-associated mutant viruses; cited from earlier work
Y181C mutant virus [6] = test: Suppression of virus replication in vitro in 100% normal human serum; inhibitory quotient; format: cell-based, HIV-1; settings: ratio of clinical trough concentration over antiviral EC50
Procedure: (§4) In addition, the susceptibility of a broader array of clinical-NNRTI-associated mutant viruses (a total of 96 viruses) to doravirine and other benchmark NNRTIs was investigated. […] See Lai, Ming-Tain, et al., In Vitro Characterization of MK-1439, a Novel HIV-1 Nonnucleoside Reverse Transcriptase Inhibitor. Antimicrobial Agents and Chemotherapy 58(3): 1652-1663, 2014.
as §3

K103N mutant virus [7] = test: as above; format: cell-based, HIV-1; settings: ratio of clinical trough concentration over antiviral EC50
Procedure: as §4, §3

K103N/Y181C mutant virus [8] = test: as above; format: cell-based, HIV-1; settings: ratio of clinical trough concentration over antiviral EC50
Procedure: as §4, §3

Y181C mutant virus [9] = settings: 100% normal human serum (NHS), read-out: EC50 suppressing replication; cited from earlier work
K103N mutant virus [10] = settings: 100% normal human serum (NHS), read-out: EC50 suppressing replication; cited from earlier work
[11] = system: Common doravirine-associated mutants containing F227C substitution; test: Susceptibility of the SDM derived doravirine-associated mutants as a group; format: cell-based, HIV-1
Procedure: Site-directed mutagenesis (SDMs) were generated for the substitutions V1061/F227C, V1061/H221Y/F227C, A98G/V1061/H221Y/F227C, and V106M/F227C and their susceptibility to NNRTIs was evaluated. Most of the mutants conferred a high level of resistance to DOR with a fold change (FC)>100 (FC: mutantEC50 versus WTEC50).
FIG. 1. Susceptibility of SDM derived DOR-resistant clinical mutants to NRTIs. […] In contrast, the mutants are hypersusceptible to EFdA with 2-5 fold increase in susceptibility except the quardruple mutant.
as §1

HIV = settings: compared with EFddA lacking a 3′-OH; cited from earlier work
HIV-1 [12] = test: Proof of concept study in HIV-1 infected patients; format: in vivo, human; settings: single dose as low as 0.5 mg
Procedure: EFdA was tested in HIV-1 infected patients for a proof of concept study.

## Nc1ccn([C@@H]2CS[C@H](CO)O2)c(=O)n1 [3TC, lamivudine, reference compound]
[1]
  Fold-change (EC50mut/WT EC50wt): 1.93
  EC50: 1160 ± 314 nM
F227C mutant
  Fold-change (EC50mut/WT EC50wt): 2.26
  EC50: 1360 ± 94 nM
V106I/F227C mutant
  Fold-change (EC50mut/WT EC50wt): 1.15
  EC50: 692 ± 212 nM
WT virus
  Fold-change (EC50mut/WT EC50wt): 1.0
  EC50: 601 ± 142 nM
A98G/F227C mutant
  EC50: 809 ± 146 nM
V106M/F227C mutant
  EC50: 771 ± 62 nM
V106I/F227C/H221Y mutant
  EC50: 758 ± 244 nM

## Cn1c(Cn2ccc(C(F)(F)F)c(Oc3cc(Cl)cc(C#N)c3)c2=O)n[nH]c1=O [Doravirine]
[2]
  IQ values compared with RPV and EFV: higher IQ values than RPV and EFV
HIV-1 [3]
  mutations emerging in resistance selection: V106A mutant led two mutation pathways, followed by the emergence of F227L and L234I substitutions
K103N/Y181C mutant virus [4]
  EC50: 33 nM
Wild type (WT) virus
  EC50: 12 nM
[5]
  mutant profile versus benchmark NNRTIs: superior overall to that of efavirenz (EFV) and comparable to that of etravirine (ETR) and rilpivirine (RPV)
Y181C mutant virus [6]
  Inhibitory quotient (IQ): 27
K103N mutant virus [7]
  Inhibitory quotient (IQ): 39
K103N/Y181C mutant virus [8]
  Inhibitory quotient (IQ): 25
Y181C mutant virus [9]
  EC50: 31 nM
K103N mutant virus [10]
  EC50: 21 nM

## O=C1Nc2ccc(Cl)cc2[C@@](C#CC2CC2)(C(F)(F)F)O1 [EFV, efavirenz]
Y181C mutant virus [6]
  Inhibitory quotient (IQ): 60
K103N mutant virus [7]
  Inhibitory quotient (IQ): 2.5
K103N/Y181C mutant virus [8]
  Inhibitory quotient (IQ): 1.9

## C#C[C@]1(CO)O[C@@H](n2cnc3c(N)nc(F)nc32)C[C@@H]1O [EFdA, 4′-ethynyl-2-fluoro-2′-deoxyadenosine]
[11]; mutants containing F227C substitution
  susceptibility / potency of mutants compared with WT virus: better potency compared to WT virus
[11]; {}
  fold increase in susceptibility (hypersusceptible): 2-5 fold
[1]
  Fold-change (EC50mut/WT EC50wt): 1.00
  EC50: 0.81 ± 0.124 nM
F227C mutant
  Fold-change (EC50mut/WT EC50wt): 0.18
  EC50: 0.15 ± 0.026 nM
V106I/F227C mutant
  Fold-change (EC50mut/WT EC50wt): 0.44
  EC50: 0.35 ± 0.048 nM
WT virus
  Fold-change (EC50mut/WT EC50wt): 1.0
  EC50: 0.81 ± 0.029 nM
HIV
  antiviral activity relative to EFddA: 10,000 times
A98G/F227C mutant; A98G/F227C
  Fold-change (EC50mut/WT EC50wt): 0.18
A98G/F227C mutant
  EC50: 0.15 ± 0.026 nM
V106M/F227C mutant
  Fold-change (EC50mut/WT EC50wt): 0.37
  EC50: 0.3 ± 0.048 nM
V106I/F227C/H221Y mutant
  Fold-change (EC50mut/WT EC50wt): 0.49
  EC50: 0.4 ± 0.075 nM
HIV-1 [12]
  duration of suppression of HIV replication: at least seven days

## Cc1cc(/C=C/C#N)cc(C)c1Nc1ccnc(Nc2ccc(C#N)cc2)n1 [RPV, rilpivirine]
Y181C mutant virus [6]
  Inhibitory quotient (IQ): 1.4
K103N mutant virus [7]
  Inhibitory quotient (IQ): 4.6
K103N/Y181C mutant virus [8]
  Inhibitory quotient (IQ): 0.8
